Data on three compounds can be found in US5288725A, “Pyrroloquinoline Bradykinin antagonist” (Merck & Co., Inc., priority 1992, dated 1994).

One experiment concerns the target α1-adrenergic receptors. The experiment can be described thus: [3H] Prazosin radioligand binding, rat brain.
The next experiment concerns the target T1, BK β2 receptor (Cavia porcellus, UniProt O70526).
T1 construct: from tissue; host or cells: guinea pig ileum membranes
T1 sequence (O70526 1-372): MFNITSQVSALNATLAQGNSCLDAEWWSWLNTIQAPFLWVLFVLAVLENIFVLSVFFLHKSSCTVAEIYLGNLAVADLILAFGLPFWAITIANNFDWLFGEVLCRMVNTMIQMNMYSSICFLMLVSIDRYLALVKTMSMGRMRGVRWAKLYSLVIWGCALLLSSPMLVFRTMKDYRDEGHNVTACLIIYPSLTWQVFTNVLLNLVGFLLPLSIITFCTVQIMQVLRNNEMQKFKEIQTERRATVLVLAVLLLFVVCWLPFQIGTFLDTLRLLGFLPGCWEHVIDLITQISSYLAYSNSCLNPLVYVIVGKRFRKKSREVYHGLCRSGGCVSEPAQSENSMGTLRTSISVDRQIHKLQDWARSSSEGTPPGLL
The experiment can be described thus: [3H] BK radioligand binding, guinea pig ileum membranes. To be noted: read-out: IC50, inhibition of [3H] BK binding.

The test system of the next experiment is histamine H1 receptor. The experiment can be described thus: H1 histaminergic receptor activity in rabbit aorta (agonist histamine). The procedure:
(§1) Antagonism of BK-β1 receptors was measured using spiral strips of rabbit thoracic aorta as described by Regoli et. al., Eur. J. Pharmacol., 127,219 (1986).
(§2) The α1 -adrenergic and H1 histaminergic receptor activity of compounds were also assessed using rabbit aorta with norepinephrine and histamine, respectively, as agonists.

In experiment [1] the target is T2, cholinergic muscarinic receptors (Cavia porcellus, UniProt H0VRN8).
T2 construct: guinea pig ileum membranes as described by Watson; from tissue; host or cells: guinea pig ileum membranes
T2 sequence (H0VRN8 1-466): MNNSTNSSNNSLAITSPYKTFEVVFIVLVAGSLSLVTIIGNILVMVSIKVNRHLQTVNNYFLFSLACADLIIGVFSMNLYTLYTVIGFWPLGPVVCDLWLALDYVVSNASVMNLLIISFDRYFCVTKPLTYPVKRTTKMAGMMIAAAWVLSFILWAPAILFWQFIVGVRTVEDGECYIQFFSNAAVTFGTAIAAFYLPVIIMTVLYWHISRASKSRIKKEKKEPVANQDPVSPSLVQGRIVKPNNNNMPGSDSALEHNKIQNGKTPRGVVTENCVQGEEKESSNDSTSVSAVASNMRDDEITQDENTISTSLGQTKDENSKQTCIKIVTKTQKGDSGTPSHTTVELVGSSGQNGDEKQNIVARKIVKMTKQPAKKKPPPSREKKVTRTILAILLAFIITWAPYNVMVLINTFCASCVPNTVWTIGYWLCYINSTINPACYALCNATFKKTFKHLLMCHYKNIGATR
Nature of the experiment: [3H] Quinuclidinyl benzilate binding, guinea pig ileum membranes.

Experiment [2] deals with cholinergic muscarinic receptors. Nature of the experiment: [3H] Quinuclidinyl benzilate binding, rat cerebral cortex membranes.
A further experiment deals with T3, BK-β1 receptors (Oryctolagus cuniculus, UniProt P48748).
T3 construct: spiral strips of rabbit thoracic aorta; from tissue; host or cells: rabbit thoracic aorta spiral strips
T3 sequence (P48748 1-352): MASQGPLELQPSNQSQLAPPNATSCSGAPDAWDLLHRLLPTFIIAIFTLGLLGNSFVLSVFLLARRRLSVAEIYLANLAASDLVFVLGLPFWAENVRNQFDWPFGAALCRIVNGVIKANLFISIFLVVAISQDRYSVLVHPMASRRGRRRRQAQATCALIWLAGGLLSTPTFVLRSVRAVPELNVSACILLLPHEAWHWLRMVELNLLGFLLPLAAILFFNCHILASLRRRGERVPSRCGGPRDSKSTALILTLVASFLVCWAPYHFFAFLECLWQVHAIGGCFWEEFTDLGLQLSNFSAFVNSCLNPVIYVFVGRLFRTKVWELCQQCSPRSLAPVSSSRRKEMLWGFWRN
Nature of the experiment: Antagonism of BK-β1 receptors, spiral strips of rabbit thoracic aorta (agonist des Arg9-BK). The following applies: Schild analysis. The procedure:
as §1

A further experiment concerns α1-adrenergic receptor. Nature of the experiment: α1-adrenergic receptor activity in rabbit aorta (agonist norepinephrine). The procedure: as §1, §2
Experiment [3] concerns the target T4, cholinergic muscarinic receptors (Rattus norvegicus, UniProt P10980).
T4 construct: rat cardiac membranes; from tissue; host or cells: rat cardiac membranes
T4 sequence (P10980 1-466): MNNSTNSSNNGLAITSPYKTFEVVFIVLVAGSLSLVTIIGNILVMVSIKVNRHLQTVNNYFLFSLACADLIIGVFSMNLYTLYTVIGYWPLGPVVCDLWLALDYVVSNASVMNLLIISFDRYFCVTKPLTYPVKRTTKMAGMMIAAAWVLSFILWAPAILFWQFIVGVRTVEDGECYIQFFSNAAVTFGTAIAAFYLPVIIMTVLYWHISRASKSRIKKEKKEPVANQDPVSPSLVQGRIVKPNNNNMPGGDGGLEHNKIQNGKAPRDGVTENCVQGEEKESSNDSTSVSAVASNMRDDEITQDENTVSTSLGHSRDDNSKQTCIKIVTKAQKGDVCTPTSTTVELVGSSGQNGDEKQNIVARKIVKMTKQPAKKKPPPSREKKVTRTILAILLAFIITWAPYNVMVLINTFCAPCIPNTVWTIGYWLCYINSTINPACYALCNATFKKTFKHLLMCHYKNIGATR
Nature of the experiment: [3H] Quinuclidinyl benzilate binding, rat cardiac membranes.

Experiment [4] deals with bradykinin receptors of rat vas deferens. To be noted: cited from earlier work.
In the next experiment the test system is β2 receptors. To be noted: cited from earlier work.
In a further experiment the test system is β1 receptor. To be noted: compared with BK; cited from earlier work.

Where no end group is shown, it is not given here.

In the case of `CC(C)=CCNC(=N)NCCC[C@@H]1Nc2ccc(C(=O)OC/C(C)=C/CNC(=N)N)cc2[C@@H]2[C@H]1CCN2C(=N)NCC=C(C)C` (relative stereo) [Compound I], the half-inhibitory concentration (IC50) came to 60 nM at α1-adrenergic receptors; 200 nM at BK β2 receptor; 100 nM in experiment [1]; 100 nM in experiment [2]; 100 nM in experiment [3]. In addition, the “mode of antagonism, histamine H1 receptor” value in the experiment on histamine H1 receptor is “competitive antagonist”. For the same compound, the “pA2 value, histamine H1 receptor” value in the experiment with histamine H1 receptor worked out at 5.9. The “mode of antagonism, β1 receptor” value on BK-β1 receptors is recorded as “competitive β1 receptor antagonist”. On BK-β1 receptors (read-out: pA2 value, β1 receptor (converted)), the Kb is 2000 nM. For the same compound, the “mode of antagonism, α1 receptor” value with α1-adrenergic receptor is listed as “competitive antagonist”. In addition, the “pA2 value, α1 receptor” value with α1-adrenergic receptor is on record as 7.1.
For the compound RPPGFSPFR [BK], the “musculotropic or postjunctional action” value in [4] (isolated rat vas deferens) is “contracted the smooth muscle generating an increased muscle tone”. In addition, the “neurogenic or presynaptic effect” value in [4] (isolated rat vas deferens, electrically driven twitches) was “potentiated the magnitude of the muscular response to the electrically driven twitches”.
Turning to des-Arg^9 -bradykinin, the “activity at β2 receptors” value with β2 receptors was “relatively inactive”. The “β1 receptor agonist potency” value in the experiment with β1 receptor was “higher potency than BK”. In [4] (rat vas deferens), the “pre- or postsynaptic BK like responses” value was “inactive”.

One may read the IC50 as the concentration at which inhibition is half-maximal.
